Laboratory results taken from US20190134000A1, “COMPOUNDS TO PROMOTE NORMAL PROCESSING OF APP” (Buck Institute for Research on Aging, priority 2016, published 2019).
In brackets after ≈: the same amount, converted by molar mass. Entries after “also recorded” stand apart in the source; their conditions may differ. Like-named read-outs stand apart in the source and are kept apart here.

Columns and labels:
[1] = tested on: sAPPα in SH-SY5Y cells; assay: Primary screen, effect on sAPPα in SH-SY5Y cells (AlphaLISA); format: cell-based, human
Excerpt: (§1) Compound C41 was initially identified by screening a library of compounds in a series of steps. First compounds were screened in a primary screen to determine the effect on sAPPα in SH-SYSY cells (see, e.g., FIG. 4). Compounds that elicited an increase in sAPPα of at least 10% were subjected to a secondary screen in CHO-7W cells for their effect on sAPPα and Aβ (see, e.g., FIG. 5).

[2] = target: T1, CYP1A2 (Homo sapiens, UniProt P05177); assay: CYP inhibition screen CYP1A2; format: in vitro ADME; details: human, read-out: CYP1A2 inhibition
T1 sequence (P05177 1-516): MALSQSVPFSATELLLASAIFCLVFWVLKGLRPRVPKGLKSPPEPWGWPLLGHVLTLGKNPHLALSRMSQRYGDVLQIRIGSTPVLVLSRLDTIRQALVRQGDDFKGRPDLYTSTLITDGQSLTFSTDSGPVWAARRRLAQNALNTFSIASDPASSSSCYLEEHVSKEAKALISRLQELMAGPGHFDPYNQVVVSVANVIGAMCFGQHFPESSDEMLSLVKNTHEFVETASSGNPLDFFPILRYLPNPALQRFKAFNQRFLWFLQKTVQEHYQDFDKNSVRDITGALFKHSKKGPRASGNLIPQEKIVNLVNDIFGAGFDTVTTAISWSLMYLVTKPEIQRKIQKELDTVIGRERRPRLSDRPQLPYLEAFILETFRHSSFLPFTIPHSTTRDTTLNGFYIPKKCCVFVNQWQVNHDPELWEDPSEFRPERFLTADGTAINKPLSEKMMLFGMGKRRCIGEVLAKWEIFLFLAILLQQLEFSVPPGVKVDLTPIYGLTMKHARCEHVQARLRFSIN

[3] = reported; cited from earlier work
[4] = tested on: AD mouse model; assay: Synaptic load, synaptophysin labeling of hippocampus; format: in vivo
Method: FIG. 16 illustrates mechanistic confirmation studies for determination of synaptic load.
Mechanistic confirmation studies for determination of synaptic load were performed using antibody-labeling of synaptophysin with a green fluorescent tag. […] The improvements in NLR and NOR may be correlated to the restoration of synaptic load, increases in sAPPα or the sAPPα/sAPPβ ratio; increases in the sAPPα/Aβ1-42 ratio; decreases in the p-tau/tau ratio, and/or decreases in APPneo (c-terminal cleavage).

[5] = target: CYP2C9 (Homo sapiens, UniProt P11712); assay: CYP inhibition screen CYP2C9; format: in vitro ADME; details: human, read-out: CYP2C9 inhibition
Chain of CYP2C9 (P11712 whole entry): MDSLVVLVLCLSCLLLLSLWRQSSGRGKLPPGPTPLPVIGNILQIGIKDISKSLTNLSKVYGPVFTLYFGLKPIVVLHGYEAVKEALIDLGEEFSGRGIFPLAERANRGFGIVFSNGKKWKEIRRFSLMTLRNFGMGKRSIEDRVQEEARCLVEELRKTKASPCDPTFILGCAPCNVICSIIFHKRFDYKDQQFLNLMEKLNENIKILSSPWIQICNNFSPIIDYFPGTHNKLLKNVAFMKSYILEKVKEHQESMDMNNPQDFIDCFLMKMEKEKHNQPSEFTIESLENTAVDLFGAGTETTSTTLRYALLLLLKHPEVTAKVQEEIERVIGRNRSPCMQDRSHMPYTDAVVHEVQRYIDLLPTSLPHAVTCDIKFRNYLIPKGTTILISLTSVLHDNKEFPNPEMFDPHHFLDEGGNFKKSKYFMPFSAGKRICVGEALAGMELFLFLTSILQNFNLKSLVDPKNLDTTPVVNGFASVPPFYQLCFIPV

[6] = target: α7 (Homo sapiens, UniProt P36544); assay: Target binding α7
Chain of α7 (P36544 23-502): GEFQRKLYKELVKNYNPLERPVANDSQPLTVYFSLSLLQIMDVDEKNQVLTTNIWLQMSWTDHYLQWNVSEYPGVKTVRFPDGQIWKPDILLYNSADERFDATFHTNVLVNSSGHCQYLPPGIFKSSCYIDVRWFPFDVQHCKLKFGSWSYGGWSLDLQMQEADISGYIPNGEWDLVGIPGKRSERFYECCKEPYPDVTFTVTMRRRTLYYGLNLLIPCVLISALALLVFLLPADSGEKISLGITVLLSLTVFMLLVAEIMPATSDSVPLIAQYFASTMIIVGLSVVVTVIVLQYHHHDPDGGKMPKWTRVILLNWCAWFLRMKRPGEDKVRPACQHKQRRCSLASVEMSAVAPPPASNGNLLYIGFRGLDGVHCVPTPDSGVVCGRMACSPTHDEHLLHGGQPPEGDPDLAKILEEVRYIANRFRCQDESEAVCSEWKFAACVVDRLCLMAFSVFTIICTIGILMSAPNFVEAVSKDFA

[7] = target: APP (Homo sapiens, UniProt P05067); assay: Target binding APP
Chain of APP (P05067 18-770, species assumed): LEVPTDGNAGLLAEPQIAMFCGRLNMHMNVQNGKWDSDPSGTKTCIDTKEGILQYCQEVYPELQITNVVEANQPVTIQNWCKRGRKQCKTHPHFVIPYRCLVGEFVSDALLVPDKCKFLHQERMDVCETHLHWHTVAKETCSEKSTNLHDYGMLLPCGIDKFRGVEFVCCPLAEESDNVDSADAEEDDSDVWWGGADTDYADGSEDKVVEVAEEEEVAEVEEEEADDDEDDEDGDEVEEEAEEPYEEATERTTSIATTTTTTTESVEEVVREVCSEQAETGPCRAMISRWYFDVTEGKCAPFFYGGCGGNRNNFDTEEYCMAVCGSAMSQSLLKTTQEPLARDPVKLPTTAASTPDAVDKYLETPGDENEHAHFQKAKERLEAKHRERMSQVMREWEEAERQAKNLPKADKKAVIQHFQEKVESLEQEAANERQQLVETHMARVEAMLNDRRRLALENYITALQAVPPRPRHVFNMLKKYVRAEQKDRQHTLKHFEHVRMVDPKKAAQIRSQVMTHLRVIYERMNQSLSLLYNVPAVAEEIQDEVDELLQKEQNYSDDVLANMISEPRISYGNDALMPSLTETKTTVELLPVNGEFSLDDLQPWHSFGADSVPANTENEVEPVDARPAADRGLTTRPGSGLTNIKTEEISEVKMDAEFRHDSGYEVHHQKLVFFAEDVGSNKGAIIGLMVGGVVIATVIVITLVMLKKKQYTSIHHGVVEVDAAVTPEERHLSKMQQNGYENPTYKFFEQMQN

[8] = Solubility in water
[9] = in vitro
Method: The second batch of C41 was tested for plasma protein binding, ADME-tox screening (microsomal intrinsic clearance), and ADME-tox screening (CYP inhibition screen). PK in rats was determined to determine a dose of non-GLP Pharm-Tox screening. Additionally, acute toxicity in rats (pre-subchronic toxicity) and non-GLP subchronic toxicity was determined.

[10] = target: CYP3A4 (Homo sapiens, UniProt P08684); assay: CYP inhibition screen CYP3A4; format: in vitro ADME; details: human
Chain of CYP3A4 (P08684 whole entry): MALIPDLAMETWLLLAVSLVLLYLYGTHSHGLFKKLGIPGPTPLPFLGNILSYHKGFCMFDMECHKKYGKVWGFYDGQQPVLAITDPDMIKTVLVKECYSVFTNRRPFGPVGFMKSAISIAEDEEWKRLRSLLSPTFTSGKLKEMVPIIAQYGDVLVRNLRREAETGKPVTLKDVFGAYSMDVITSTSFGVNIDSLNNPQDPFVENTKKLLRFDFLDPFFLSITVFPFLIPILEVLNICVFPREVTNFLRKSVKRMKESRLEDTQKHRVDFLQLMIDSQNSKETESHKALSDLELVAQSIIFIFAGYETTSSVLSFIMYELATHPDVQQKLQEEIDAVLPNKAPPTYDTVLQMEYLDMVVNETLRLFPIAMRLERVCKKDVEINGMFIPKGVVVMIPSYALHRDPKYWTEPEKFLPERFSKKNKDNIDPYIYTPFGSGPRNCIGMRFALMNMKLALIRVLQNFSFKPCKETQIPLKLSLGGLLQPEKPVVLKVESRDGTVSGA

[11] = target: CYP2D6 (Homo sapiens, UniProt P10635); assay: CYP inhibition screen CYP2D6; format: in vitro ADME; details: human, read-out: CYP2D6 inhibition
Chain of CYP2D6 (P10635 whole entry): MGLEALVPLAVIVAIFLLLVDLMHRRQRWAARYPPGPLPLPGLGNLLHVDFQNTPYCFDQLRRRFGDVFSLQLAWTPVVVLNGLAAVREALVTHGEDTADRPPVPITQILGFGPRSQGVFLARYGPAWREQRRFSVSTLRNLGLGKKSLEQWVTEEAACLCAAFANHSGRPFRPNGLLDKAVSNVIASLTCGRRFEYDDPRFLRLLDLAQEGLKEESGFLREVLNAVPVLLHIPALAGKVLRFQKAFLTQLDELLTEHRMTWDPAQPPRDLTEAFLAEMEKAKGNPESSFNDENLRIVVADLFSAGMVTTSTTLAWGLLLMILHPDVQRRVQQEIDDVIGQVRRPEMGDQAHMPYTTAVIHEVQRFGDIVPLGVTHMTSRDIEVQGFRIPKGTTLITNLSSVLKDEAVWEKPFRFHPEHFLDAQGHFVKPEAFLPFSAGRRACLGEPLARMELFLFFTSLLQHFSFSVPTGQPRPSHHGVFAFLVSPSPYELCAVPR

[12] = target: T2, 5-HT3 (Homo sapiens, UniProt P46098); assay: Target binding 5-HT3; details: target binding
T2 sequence (P46098 24-478): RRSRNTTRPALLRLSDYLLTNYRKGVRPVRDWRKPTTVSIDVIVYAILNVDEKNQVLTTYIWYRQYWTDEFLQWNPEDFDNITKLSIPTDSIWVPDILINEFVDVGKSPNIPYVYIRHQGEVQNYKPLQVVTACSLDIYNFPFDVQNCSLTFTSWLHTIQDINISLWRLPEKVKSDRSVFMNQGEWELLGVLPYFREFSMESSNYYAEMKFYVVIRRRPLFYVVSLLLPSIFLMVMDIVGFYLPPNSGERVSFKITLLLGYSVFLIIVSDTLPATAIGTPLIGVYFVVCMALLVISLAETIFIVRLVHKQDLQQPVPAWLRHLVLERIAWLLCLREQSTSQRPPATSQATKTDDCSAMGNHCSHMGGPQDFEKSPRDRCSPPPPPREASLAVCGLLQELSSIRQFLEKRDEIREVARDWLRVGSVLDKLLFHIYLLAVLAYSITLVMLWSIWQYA

[13] = target: CYP2C19 (Homo sapiens, UniProt P33261); assay: CYP inhibition screen CYP2C19; format: in vitro ADME; details: human, read-out: CYP2C19 inhibition
Chain of CYP2C19 (P33261 whole entry): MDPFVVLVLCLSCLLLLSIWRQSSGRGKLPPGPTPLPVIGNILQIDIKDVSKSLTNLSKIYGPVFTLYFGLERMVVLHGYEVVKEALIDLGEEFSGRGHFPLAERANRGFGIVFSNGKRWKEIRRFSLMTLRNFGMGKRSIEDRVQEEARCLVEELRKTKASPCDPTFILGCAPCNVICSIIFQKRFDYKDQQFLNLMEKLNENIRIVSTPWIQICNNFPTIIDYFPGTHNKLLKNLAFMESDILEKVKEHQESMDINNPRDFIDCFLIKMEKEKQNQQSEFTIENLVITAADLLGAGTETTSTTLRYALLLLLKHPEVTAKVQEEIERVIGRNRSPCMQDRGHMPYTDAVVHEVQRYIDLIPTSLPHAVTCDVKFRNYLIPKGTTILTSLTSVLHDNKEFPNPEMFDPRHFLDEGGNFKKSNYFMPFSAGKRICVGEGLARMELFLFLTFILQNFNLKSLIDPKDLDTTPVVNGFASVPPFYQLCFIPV

[14] = tested on: AD model mouse; assay: In vivo study of C41 and F03 in an AD model mouse
Excerpt: Panel A: Novel object preference; Panel B: Novel location preference; Panel C: sAPPα.
Panel A: sAPPβ; Panel B: the sAPPα/sAPPβ ratio.
Compounds meeting the initial screening criteria were then subjected to in vivo testing.

[15] = tested on: sAPPα, Aβ1-42 in CHO-7W cells; assay: Secondary screen, sAPPα and Aβ in CHO-7W cells; format: cell-based
Excerpt: as §1

[16] = dog, microsomes, NADPH-Dependent CLint
[17] = dog, microsomes, NADPH-Free CLint
[18] = rat, microsomes, NADPH-Dependent CLint
[19] = rat, microsomes, NADPH-Free CLint
[20] = midazolam, read-out: CYP3A4 midazolam inhibition
[21] = testosterone, read-out: CYP3A4 testosterone inhibition

Compound: CN1C2CC[C@H]1C[C@@H](OC(=O)c1c[nH]c3cc(F)ccc13)C2.Cl [C41 HCl, (1R,3R,5S)-8-methyl-8-azabicyclo[3.2.1]octan-3-yl 6-fluoro-1H-indole-3-carboxylate hydrochloride]
- effect on sAPPα in SH-SY5Y cells ([1]; 1 μm, 24 hours): increase sAPPα similar to C41 (first batch) and to F03

Compound: CN1[C@@H]2CC[C@H]1C[C@@H](OC(=O)c1c[nH]c3ccccc13)C2 [Compound F03, tropisetron, reference compound]
- inhibition at 10 µM ([2]; 10 μM): 1%
- inhibition at 30 µM ([2]; 30 μM): 1%
- Plasma binding [3]: 70%
- synaptic load / synaptic density in hippocampus [4]: restore synaptic density; also recorded: restored synaptic load
- Primary Screen (SH-SY5Y) sAPPα ([1]; ↑ increase): ↑>10%
- inhibition at 10 µM ([5]; 10 μM): 15.9%
- inhibition at 30 µM ([5]; 30 μM): 23.3%
- Target α7 [6]: 450 nM
- Target APP [7]: 1 to 10 µM
- solubility [8]: 100 mM (≈ 28.4 mg/mL)
- microsomal CLint at 1 μM [9, 16]: 43.5 µL/min/mg
- half-life at 1 μM ([9]; dog, microsomes, NADPH-Dependent T1/2): 0.885 h
- microsomal CLint at 1 μM [9, 17]: < 9.6 µL/min/mg
- half-life at 1 μM ([9]; dog, microsomes, NADPH-Free T1/2): > 4 h
- half-life at 1 μM ([9]; human, microsomes): > 4 h
- microsomal CLint at 1 μM ([9]; human, microsomes): < 9.6 µL/min/mg
- NADPH-Free CLint ([9]; human, microsomes, 1 μM): <9.6 µL/min/mg
- NADPH-Free T1/2 ([9]; human, microsomes, 1 μM): >4 h
- microsomal CLint at 1 μM [9, 18]: 367 µL/min/mg
- half-life at 1 μM ([9]; rat, microsomes, NADPH-Dependent T1/2): 0.105 h
- microsomal CLint at 1 μM [9, 19]: < 9.6 µL/min/mg
- half-life at 1 μM ([9]; rat, microsomes, NADPH-Free T1/2): > 4 h
- inhibition at 10 µM [10, 20]: 0%
- inhibition at 10 µM [10, 21]: 0.63%
- inhibition at 30 µM [10, 20]: 6.6%
- inhibition at 30 µM [10, 21]: 10.5%
- inhibition at 10 µM ([11]; 10 μM): 17.4%
- inhibition at 30 µM ([11]; 30 μM): 38%
- Target 5-HT3 [12]: 3 nM
- inhibition at 10 µM ([13]; 10 μM): 6.4%
- inhibition at 30 µM ([13]; 30 μM): 0%
- Aβ40/42 ratio in vivo [14]: not changed
- sAPPα in vivo [14]: increased significantly
- sAPPα/Aβ1-42 ratio in vivo [14]: not increased
- Secondary Screen (CHO-7W) sAPPα ([15]; ↑ increase): ↑>10%
- Secondary Screen (CHO-7W) sAppα/Aβ ([15]; ↑ increase of ratio): ↑>30%
- Secondary Screen (CHO-7W) Aβ1-42 ([15]; ↓ decrease): ↓>10%

Compound: CC(C)NCC(O)COc1cccc2ccccc12 (centres unmarked) [propranolol, reference compound]
- Mean Plasma Fraction Bound ([9]; human, plasma): 81.6%
- fraction unbound ([9]; human, plasma): 0.184

Compound: CC(=O)CC(c1ccccc1)c1c(O)c2ccccc2oc1=O (centres unmarked) [warfarin]
- microsomal CLint at 1 μM [9, 16]: < 9.6 µL/min/mg
- microsomal CLint at 1 μM [9, 17]: < 9.6 µL/min/mg
- recovery ([9]; human): 99.7%
- microsomal CLint at 1 μM ([9]; human, microsomes): < 9.6 µL/min/mg
- NADPH-Free CLint ([9]; human, microsomes, 1 μM): <9.6 µL/min/mg
- microsomal CLint at 1 μM [9, 18]: < 9.6 µL/min/mg
- microsomal CLint at 1 μM [9, 19]: < 9.6 µL/min/mg
